Tests used:
Assay type in all cases: functional, Homo sapiens
U2OS [1] = assay: (§1) Here: values are normalized to the negative (DMSO; defined as 0% autophagy induction) and positive (250nM Torin1; mTOR inhibitor; defined as maximal inducer of autophagy = 100%) control compounds and represented as % of autophagy induction. […] The impact of autophagy induction on cells is complex and depends on the affected target. As such, the magnitude of a phenotype may not be equally mirrored in the %-value of autophagy induction and vice versa. The dynamics of the induction may indicate the mode of activation: e.g. activation via phosphorylation or a signaling cascade may occur fast, while activation via transcription factors may take considerably longer. […] Of note, treatment concentrations may be sub-optimal for specific compounds, leading to false negative annotations.; conditions: Culturing Media DMEM, 1 % Penicillin/Streptomycin, 10% Fetal bovin serum Add-On: No, Screening Media Control DMEM, Screening Media Samples DMEM
TERT-RPE1 = assay: as §1; conditions: Culturing Media DMEM/F12 (1:1), 1 % Penicillin/Streptomycin, 10% Fetal bovin serum Add-On: No, Screening Media Control DMEM/F12 (1:1), Screening Media Samples DMEM/F12 (1:1)
U2OS [2] = assay: as §1; conditions: Culturing Media DMEM, 1 % Penicillin/Streptomycin, 10% Fetal bovin serum Add-On: No, Screening Media Control DMEM, Screening Media Samples DMEM; remark: listed apart in the source
[3] = Compound Concentration 0.5 uM, Timepoint 12 hours
[4] = Compound Concentration 0.5 uM, Timepoint 24 hours
[5] = Compound Concentration 0.5 uM, Timepoint 36 hours
[6] = Compound Concentration 0.5 uM, Timepoint 60 hours
[7] = Compound Concentration 2 uM, Timepoint 12 hours
[8] = Compound Concentration 2 uM, Timepoint 24 hours
[9] = Compound Concentration 2 uM, Timepoint 36 hours
[10] = Compound Concentration 2 uM, Timepoint 60 hours
[11] = Compound Concentration 10 uM, Timepoint 12 hours
[12] = Compound Concentration 10 uM, Timepoint 24 hours
[13] = Compound Concentration 10 uM, Timepoint 36 hours
[14] = Compound Concentration 10 uM, Timepoint 60 hours

SMILES	autophagy induction (U2OS [1]; [3]) [%]	autophagy induction (U2OS [1]; [4]) [%]	autophagy induction (U2OS [1]; [5]) [%]	autophagy induction (U2OS [1]; [6]) [%]	autophagy induction (U2OS [1]; [7]) [%]	autophagy induction (U2OS [1]; [8]) [%]	autophagy induction (U2OS [1]; [9]) [%]	autophagy induction (U2OS [1]; [10]) [%]	autophagy induction (U2OS [1]; [11]) [%]	autophagy induction (U2OS [1]; [12]) [%]	autophagy induction (U2OS [1]; [13]) [%]	autophagy induction (U2OS [1]; [14]) [%]	autophagy induction (TERT-RPE1; [3]) [%]	autophagy induction (TERT-RPE1; [4]) [%]	autophagy induction (TERT-RPE1; [5]) [%]	autophagy induction (TERT-RPE1; [6]) [%]	autophagy induction (TERT-RPE1; [7]) [%]	autophagy induction (TERT-RPE1; [8]) [%]	autophagy induction (TERT-RPE1; [9]) [%]	autophagy induction (TERT-RPE1; [10]) [%]	further results
N#Cc1cccc(C(=O)Nc2cc(-c3ccccc3)nn2-c2ccccc2)c1	-5.641	-2.328	-2.122	-3.431	0.2801	-3.069	-2.148	-2.332	-0.7756	-1.607	-0.5457	-0.9476	-7.699	-6.069	3.327	19.4837	-8.111	-9.075	-9.172	-3.858	autophagy induction (TERT-RPE1; [11]): -3.603%; autophagy induction (TERT-RPE1; [12]): -4.896%; autophagy induction (TERT-RPE1; [13]): -4.571%; autophagy induction (TERT-RPE1; [14]): -1.999%; autophagy induction (U2OS [2]; [3]): 0.2338%; autophagy induction (U2OS [2]; [4]): 1.876%; autophagy induction (U2OS [2]; [5]): 9.199%; autophagy induction (U2OS [2]; [6]): 8.756%; autophagy induction (U2OS [2]; [7]): -6.937%; autophagy induction (U2OS [2]; [8]): -1.593%; autophagy induction (U2OS [2]; [9]): 2.3802%; autophagy induction (U2OS [2]; [10]): -5.115%; autophagy induction (U2OS [2]; [11]): 0.7229%; autophagy induction (U2OS [2]; [12]): 5.625%; autophagy induction (U2OS [2]; [13]): -1.742%; autophagy induction (U2OS [2]; [14]): -2.793%
CSc1ccc(C(=O)N[C@@H]2CCCC[C@@H]2NC(=O)CNC(=O)c2cc(C(F)(F)F)ccc2NC(=O)NC(C)C)cc1	-1.519	-1.673	-0.1292	-0.4268	6.41	-0.3397	0.2664	0.6149	-6.202	-3.0141	-1.6234	-0.3642	-7.317	-10.4362	-10.5931	-10.1253	-7.697	-8.893	-11.9452	-15.6367	autophagy induction (TERT-RPE1; [11]): -4.351%; autophagy induction (TERT-RPE1; [12]): -5.968%; autophagy induction (TERT-RPE1; [13]): -5.344%; autophagy induction (TERT-RPE1; [14]): -2.567%; autophagy induction (U2OS [2]; [3]): -3.4763%; autophagy induction (U2OS [2]; [4]): -6.206%; autophagy induction (U2OS [2]; [5]): -3.128%; autophagy induction (U2OS [2]; [6]): -12.7895%; autophagy induction (U2OS [2]; [7]): 8.51%; autophagy induction (U2OS [2]; [8]): 8.515%; autophagy induction (U2OS [2]; [9]): 8.998%; autophagy induction (U2OS [2]; [10]): -1.4223%; autophagy induction (U2OS [2]; [11]): 3.613%; autophagy induction (U2OS [2]; [12]): 5.882%; autophagy induction (U2OS [2]; [13]): 6.117%; autophagy induction (U2OS [2]; [14]): 10.5977%
CCOC(=O)c1cc(C#N)c(N2CCC(C(=O)NS(=O)(=O)Cc3ccccc3)CC2)nc1C	-5.45	-2.451	-3.099	-2.587	4.284	0.2818	0.3824	-0.02347	-3.626	-2.74	-1.363	-0.00442	-6.976	-10.3002	-8.825	-14.4044	-3.0862	-5.808	-6.285	-11.624	autophagy induction (TERT-RPE1; [11]): -2.8574%; autophagy induction (TERT-RPE1; [12]): -4.514%; autophagy induction (TERT-RPE1; [13]): -6.439%; autophagy induction (TERT-RPE1; [14]): -9.708%; autophagy induction (U2OS [2]; [3]): -1.238%; autophagy induction (U2OS [2]; [4]): -0.869%; autophagy induction (U2OS [2]; [5]): -0.6019%; autophagy induction (U2OS [2]; [6]): -13.2748%; autophagy induction (U2OS [2]; [7]): -11.375%; autophagy induction (U2OS [2]; [8]): -8.508%; autophagy induction (U2OS [2]; [9]): -7.086%; autophagy induction (U2OS [2]; [10]): -3.832%; autophagy induction (U2OS [2]; [11]): -0.3683%; autophagy induction (U2OS [2]; [12]): 1.86%; autophagy induction (U2OS [2]; [13]): -9.343%; autophagy induction (U2OS [2]; [14]): -16.8017%
COc1ccccc1CN[C@H]1C2CCN(CC2)[C@H]1C(c1ccccc1)c1ccccc1 [CP-96345]	8.36	2.83	0.2431	0.5109	-21.7864	-9.531	-7.223	-5.938	-2.456	-0.4585	-0.2201	-2.05	-7.147	-11.4989	-14.454	-21.453	-6.616	-10.9647	-14.8934	-18.8514	autophagy induction (TERT-RPE1; [11]): 2.262%; autophagy induction (TERT-RPE1; [12]): 3.387%; autophagy induction (TERT-RPE1; [13]): 7.76%; autophagy induction (TERT-RPE1; [14]): 2.279%; autophagy induction (U2OS [2]; [3]): -3.495%; autophagy induction (U2OS [2]; [4]): -5.808%; autophagy induction (U2OS [2]; [5]): -2.326%; autophagy induction (U2OS [2]; [6]): -4.4745%; autophagy induction (U2OS [2]; [7]): 5.091%; autophagy induction (U2OS [2]; [8]): 1.613%; autophagy induction (U2OS [2]; [9]): -0.5186%; autophagy induction (U2OS [2]; [10]): 0.7913%; autophagy induction (U2OS [2]; [11]): 26.1721%; autophagy induction (U2OS [2]; [12]): 19.1804%; autophagy induction (U2OS [2]; [13]): 19.6555%; autophagy induction (U2OS [2]; [14]): 18.5295%
